Publication PMC12366525, “Characterization of allosteric modulators that disrupt androgen receptor co-activator protein-protein interactions to alter transactivation–Drug leads for metastatic castration resistant prostate cancer” (SLAS discovery : advancing life sciences R & D, 2023)

Columns and labels:
TIF2 = target: T1, TIF2 (Homo sapiens, UniProt Q15596); assay: Western blotting cellular thermal shift assay for TIF2 in C4–2 cells; assay type: cell-based; conditions: 20 μM 1 h at 37 °C prior to heat shock at 46 °C
T1 construct: endogenous in cells; host or cells: C4–2 cells
Protocol: C4–2 cells were harvested by trypsinization, washed 1x by centrifugation at 270 × g for 5 min and resuspension in PBS, counted, centrifugated at 270 × g for 5 min and resuspended at 7 × 10 [6] cells per mL in Opti-MEM medium (Gibco, Gaithersburg, MD). 50 μL of C4–2 cell suspension (3.5 × 10 [5] cells) were then transferred to PCR tubes that were placed in a T-100 thermocycler (BioRad, Hercules, CA) and a 2 °C interval temperature step gradient from 37 °C to 53 °C was applied. Cells were maintained at each step of the temperature gradient for 5 min and then tubes were withdrawn and placed on ice. 50 μL of cell lysis buffer, 500 mM NaCl, 1% NP-40, 1x protease inhibitor cocktail in PBS were added to the heat shocked cell suspensions in PCR tubes and placed on ice for an additional 30 min. Cell lysates were then centrifuged at 14,000 RPM (18,800 × g) at 4 °C for 15 min and supernatants were transferred to new tubes and protein concentrations were determined in a bicinchoninic acid (BCA) assay. 45 μL of cell lysis supernatants were mixed with 15 μL of 5x SDS-PAGE sample buffer and placed in a heat block at 100 °C for 5 min. The protein constituents of heat shocked C4–2 cell lysis supernatants were separated by SDS-PAGE on 8% separating gels, transferred to nitrocellulose membranes that were blocked for 1 h at room temperature in 5% non-fat milk in TBST, and then probed overnight at 4 °C with a 1:1000 dilution of either rabbit anti-AR (Cell Signaling, Danvers, MA) or rabbit anti-TIF2 (Bethyl Laboratories, Waltham, MA) primary antibodies in TBST containing 5% non-fat milk. Membranes were then washed 3x in TBST buffer for 10 min, then incubated with a 1:10,000 dilution of the goat anti-rabbit IgG HRP conjugated secondary antibody (Invitrogen, Carlsbad,CA) in TBST containing 5% non-fat milk for 1 h at room temperature. Western blots were then washed 3x in TBST buffer and developed with Pierce ECL western blotting substrate. Images of ECL western blots were acquired on an iBright 1500 imaging system and quantified using the iBright image analysis software.

PSA = assay: Western blot of PSA expression in C4–2 cells; assay type: cell-based, human; conditions: for C4-2 cell lysates PSA Western Blot, relative to DMSO (100%): 10 nM DHT 24 h, 20 μM compound 3 h pre-exposure; for Effect on endogenous and DHT-enhanced PSA expression and secretion: C4–2 cells, 20 μM for 3 h prior to DMSO or 10 nM DHT, 24 h
Protocol: Cell lysate protein concentrations were determined in a bicinchoninic acid (BCA) assay. Equal amounts of cell protein were mixed with SDS-PAGE sample buffer and placed in a heat block at 100 °C for 5 min. The protein constituents of C4–2 cells were separated by SDS-PAGE on 10% separating gels, transferred to nitrocellulose membranes and western blots were probed overnight at 4 °C with a 1:1000 dilution of a rabbit anti-hPSA (Cell Signaling, Danvers, MA) primary antibody in Tris-buffered saline (TBS) Tween 20 (TBST) containing 5% non-fat milk. Membranes were washed 3x in TBST for 10 min, then incubated for 1 h at room temperature with a 1:10,000 dilution of the goat anti-rabbit IgG horse radish peroxidase (HRP) conjugated secondary antibody (Invitrogen, Carlsbad, CA) in TBST containing 5% non-fat milk. Western blots were then washed 3x in TBST and developed with Pierce enhanced chemiluminescence (ECL) western blotting substrate (Thermo Fisher Scientific, Waltham, MA). Images of western blot ECL bands were acquired on an iBright 1500 imaging system (Thermo Fisher Scientific, Waltham, MA) and quantified by iBright image analysis software.

AR-LBD = target: T2, AR-LBD (Homo sapiens, UniProt P10275); assay: H^3-DHT radioligand competition binding assay; conditions: 10 nM H^3-DHT, recombinant His6-AR-LBD
T2 construct: The pET28a-AR-LBD (622–919) construct [78] was a gift; made in house
T2 sequence (P10275 622-919): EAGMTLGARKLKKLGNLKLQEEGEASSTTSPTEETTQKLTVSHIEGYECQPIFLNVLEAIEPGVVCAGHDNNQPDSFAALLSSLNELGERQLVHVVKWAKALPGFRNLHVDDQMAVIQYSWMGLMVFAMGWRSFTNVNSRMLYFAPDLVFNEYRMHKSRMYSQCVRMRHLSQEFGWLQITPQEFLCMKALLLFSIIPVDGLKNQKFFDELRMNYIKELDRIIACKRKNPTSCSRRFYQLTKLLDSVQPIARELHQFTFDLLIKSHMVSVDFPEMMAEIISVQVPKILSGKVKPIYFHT
Protocol: The His6-AR-LBD H^3-DHT competition binding assay has been described previously. Briefly, 96-well Cu^2+-coated plates (ThermoFisher) were incubated overnight at 4 °C with 5 μg per well His6-AR-LBD in 100 μL of PBS. Unbound His6-AR-LBD was aspirated, the plate was washed 3 × with 100 μL of 0.05% Tween 20 in PBS and then blocked with 100 μL of 1 mg/mL BSA in PBS for 1 h. After three more washes with 100 μL of PBS and 0.05% Tween 20, 40 μL of PBS was added to wells followed by 5 μL each of diluted compounds and 100 nM H^3-DHT transferred into the wells using a Matrix pipettor. Compounds were tested between 0.098 to 50 μM in the presence of 10 nM H^3-DHT. After 1 h, compounds and H^3-DHT were aspirated and washed 3 × with 0.05% Tween 20 in PBS; 100 μL of Microscint™−20 micro-scintillation cocktail buffer (Perkin Elmer, Waltham, MA) was added to each well, plates were sealed with adhesive plastic covers; and the counts per minute (CPMs) were captured in a TopCount NXT microtiter plate reader (Perkin Elmer, Waltham, MA).

T1 sequence (Q15596 whole entry): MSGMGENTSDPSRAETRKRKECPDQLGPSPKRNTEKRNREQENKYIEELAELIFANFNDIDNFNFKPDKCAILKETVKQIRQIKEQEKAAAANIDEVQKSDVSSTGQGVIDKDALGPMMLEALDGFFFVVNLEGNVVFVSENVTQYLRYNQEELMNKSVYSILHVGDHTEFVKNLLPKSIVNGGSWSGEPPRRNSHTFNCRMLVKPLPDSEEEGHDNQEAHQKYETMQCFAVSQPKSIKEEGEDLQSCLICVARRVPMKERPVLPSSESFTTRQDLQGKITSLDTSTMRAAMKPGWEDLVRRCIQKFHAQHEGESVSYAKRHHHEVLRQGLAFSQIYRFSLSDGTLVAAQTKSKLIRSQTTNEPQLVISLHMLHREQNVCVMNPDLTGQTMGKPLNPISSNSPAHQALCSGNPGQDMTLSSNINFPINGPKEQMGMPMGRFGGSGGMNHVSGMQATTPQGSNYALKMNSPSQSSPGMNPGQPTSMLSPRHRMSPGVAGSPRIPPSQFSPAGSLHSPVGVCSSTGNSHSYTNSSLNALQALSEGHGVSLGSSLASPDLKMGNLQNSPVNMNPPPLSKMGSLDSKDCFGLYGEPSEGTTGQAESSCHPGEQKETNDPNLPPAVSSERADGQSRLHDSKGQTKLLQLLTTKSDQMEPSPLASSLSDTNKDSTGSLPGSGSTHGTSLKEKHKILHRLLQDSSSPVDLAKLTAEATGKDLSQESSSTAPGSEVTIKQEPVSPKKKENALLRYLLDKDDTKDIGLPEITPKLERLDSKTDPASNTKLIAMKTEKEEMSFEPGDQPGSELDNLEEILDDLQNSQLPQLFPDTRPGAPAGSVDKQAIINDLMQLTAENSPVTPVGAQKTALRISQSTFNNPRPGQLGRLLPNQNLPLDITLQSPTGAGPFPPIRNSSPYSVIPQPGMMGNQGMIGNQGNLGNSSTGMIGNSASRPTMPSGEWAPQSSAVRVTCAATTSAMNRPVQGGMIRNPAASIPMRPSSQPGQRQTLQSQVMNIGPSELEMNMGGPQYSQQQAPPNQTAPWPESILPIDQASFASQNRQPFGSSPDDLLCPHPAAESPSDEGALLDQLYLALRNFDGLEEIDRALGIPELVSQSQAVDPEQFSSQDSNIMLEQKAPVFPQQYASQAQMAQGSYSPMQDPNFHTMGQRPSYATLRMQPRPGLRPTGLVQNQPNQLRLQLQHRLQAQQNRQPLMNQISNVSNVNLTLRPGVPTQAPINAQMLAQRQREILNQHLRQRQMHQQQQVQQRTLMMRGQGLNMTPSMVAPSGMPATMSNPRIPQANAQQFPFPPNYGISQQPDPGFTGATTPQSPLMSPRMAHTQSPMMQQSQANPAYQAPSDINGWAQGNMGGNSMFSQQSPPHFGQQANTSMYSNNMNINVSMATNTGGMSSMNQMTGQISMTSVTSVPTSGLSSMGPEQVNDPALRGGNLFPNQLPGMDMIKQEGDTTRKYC

| SMILES | IC50 (AR-LBD) | Effect on TIF2 thermal stability (TIF2) | C4-2 cell lysates PSA Western Blot, relative to DMSO (100%) (PSA) | Effect on endogenous and DHT-enhanced PSA expression and secretion (PSA) |
| --- | --- | --- | --- | --- |
| Cc1nsc(NC(=O)N2CCC(Sc3ccccc3C)CC2)n1 [S2–6] | – | did not enhance TIF2 thermal stability over DMSO | 0.9% | substantially reduced both endogenous and DHT-enhanced PSA expression and secretion |
| Cc1c(-c2ccccc2F)[nH]c2ccc(CNC(=O)CCc3cn[nH]c3)cc12 [S3–11] | – | did not enhance TIF2 thermal stability over DMSO | 22.8% | substantially reduced both endogenous and DHT-enhanced PSA expression and secretion |

Second part, led by results:

| IC50 (AR-LBD) | SMILES | Effect on TIF2 thermal stability (TIF2) | C4-2 cell lysates PSA Western Blot, relative to DMSO (100%) (PSA) | Effect on endogenous and DHT-enhanced PSA expression and secretion (PSA) |
| --- | --- | --- | --- | --- |
| 43.7 µM | Cc1ccccc1-c1cc(O)c2c(c1)CN(c1nc(C(N)=O)cs1)CCO2 [S1–1] | did not enhance TIF2 thermal stability over DMSO | 22.1% | substantially reduced both endogenous and DHT-enhanced PSA expression and secretion |
| > 100 µM | Cc1ccccc1-c1cc(O)c2c(c1)CN(c1nccs1)CCO2 [S1–3] | – | – | – |
| 62.9 µM | Cc1c(-c2ccccc2F)[nH]c2ccc(CNC(=O)c3ccc(CO)o3)cc12 [S3–14] | – | – | – |
